Laboratory results from BindingDB's records for doi:10.1021/acs.jmedchem.8b00655 (University of Iowa, 2018).

Experiment: Binding affinity to BTN3A1 in human PBMC assessed as stimulation of Vgamma9 Vdelta2 T cells incubated for 3 days and measured after 11 days post compound removal by flow cytometry

Row | SMILES | EC50
1 | CCOC(=O)CNP(=O)(CC/C=C(\C)CO)Oc1ccccc1 (stereo not given) | 0.36 nM
2 | C/C(=C\CCP(=O)(NCC(=O)OC(C)C)Oc1cccc2ccccc12)CO (stereo not given) | 0.34 nM
3 | COC(=O)CNP(=O)(CC/C=C(\C)CO)Oc1cccc2ccccc12 (stereo not given) | 0.44 nM
4 | CCOC(=O)CNP(=O)(CC/C=C(\C)CO)Oc1cccc2ccccc12 (stereo not given) | 0.36 nM
5 | CCOC(=O)CNP(=O)(CC/C=C(\C)CO)Oc1ccc2ccccc2c1 (stereo not given) | 0.53 nM
6 | C/C(=C\CCP(=O)(NCC(=O)OC(C)C)Oc1ccc2ccccc2c1)CO (stereo not given) | 0.82 nM
7 | COC(=O)CNP(=O)(CC/C=C(\C)CO)Oc1ccccc1 (stereo not given) | 1.5 nM
8 | C/C(=C\CCP(=O)(NCC(=O)OC(C)C)Oc1ccccc1)CO (stereo not given) | 1.1 nM
9 | COP(=O)(CC/C=C(\C)CO)OC | > 10000 nM
10 | COC(=O)CNP(=O)(CC/C=C(\C)CO)Oc1ccc2ccccc2c1 (stereo not given) | 0.58 nM
